The results in this text go back to US20230159509A1 (Amathus Therapeutics, Inc., priority 2020, published 2023).

As usually defined, the EC50 is the concentration that produces a half-maximal response. In general, Emax refers to the size of the effect at its maximum, as opposed to the concentration needed.

The target in the experiment is T1, TRAP1 enzyme (Homo sapiens, UniProt Q12931).
T1 construct: 150 nM Trap1 enzyme was incubated with various concentrations of the test compound
T1 sequence (Q12931 60-704): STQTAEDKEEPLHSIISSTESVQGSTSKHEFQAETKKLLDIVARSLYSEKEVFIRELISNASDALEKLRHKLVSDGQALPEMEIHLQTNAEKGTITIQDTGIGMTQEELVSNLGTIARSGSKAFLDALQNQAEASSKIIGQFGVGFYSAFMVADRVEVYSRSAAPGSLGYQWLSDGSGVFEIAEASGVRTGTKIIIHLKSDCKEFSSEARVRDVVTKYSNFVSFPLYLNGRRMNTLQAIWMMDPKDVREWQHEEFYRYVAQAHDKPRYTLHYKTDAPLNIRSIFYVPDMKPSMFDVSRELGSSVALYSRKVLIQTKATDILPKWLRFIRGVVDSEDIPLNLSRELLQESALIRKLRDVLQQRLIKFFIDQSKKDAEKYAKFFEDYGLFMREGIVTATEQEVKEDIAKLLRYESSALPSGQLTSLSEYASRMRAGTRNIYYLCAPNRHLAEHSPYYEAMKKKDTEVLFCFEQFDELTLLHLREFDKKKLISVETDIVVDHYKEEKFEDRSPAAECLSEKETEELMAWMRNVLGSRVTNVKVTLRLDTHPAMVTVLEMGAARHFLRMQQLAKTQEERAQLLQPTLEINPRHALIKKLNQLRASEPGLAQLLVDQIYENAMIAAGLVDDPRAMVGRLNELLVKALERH
The experiment is described as follows: ADP Glo assay of TRAP1 ATPase activity. Format: biochemical. The note with it: for EC50: concentration for half maximal activation, read-out: ADP GLO DRC: GeoMean EC50; for Emax: maximal percent activation, read-out: ADP GLO DRC: Mean Emax. The procedure:
Potency of test compounds to modulate the ATPase activity of TRAP1 enzyme was evaluated using ADP Glo assay. The assay is based on quantification of the ADP generated from ATP in the ATPase reaction. The assay is performed in two steps; first, after the ATPase reaction an equal volume of ADP-Glo™ Reagent is added to terminate the ATPase reaction and deplete the remaining ATP. Second, the Kinase Detection Reagent is added to simultaneously convert ADP to ATP and allow the newly synthesized ATP to be measured using a luciferase/luciferin reaction.
All the assays were carried out in a 384-well Proxiplate. The buffer used was 25 mM Pipes pH-7.5, 40 mM KCl, 0.05 mM MgCl2, 0.025% BSA, 0.316 mM EGTA, 0.003% Empigen, 0.01% Igepal. 150 nM Trap1 enzyme was incubated with various concentrations of the test compound (0.79 μM-100 μM) at 37° C. for 30 mins (except in blank wells). 20 μM ATP was added to each well to start the reaction. The plate was spun for 1 min at 1200 rpm and then incubated at 37° C. for 60 mins. 5 μl of ADP Glo reagent was added to all the wells and spun the plate for 1 min at 1200 rpm and kept it on a shaker at ambient temperature for 60 mins. 10 μl of kinase detection mix was added to all the wells and the plate was read for Luminescence at 495 nm. The amount of ADP released was estimated from ATP/ADP standard curve generated at the same experimental conditions. Emax (Maximal percent activation) and EC50 (concentration for half maximal activation) were estimated by fitting the dose response data to a sigmoidal curve fitting equation using Graphpad Prism software V. 8.

Take `COc1ncc(NC(=O)c2noc3c2CCCC3)cc1S(=O)(=O)Nc1ccc(Cl)cc1` [compound 1194, N-(5-(N-(4-chlorophenyl)sulfamoyl)-6-methoxypyridin-3-yl)-4,5,6,7-tetrahydrobenzo[d]isoxazole-3-carboxamide]: the EC50 was in the range of 20 to 100 µM and the maximum response (Emax) fell in the range of 119 to 159%.
In the case of `COc1ncc(NC(=O)c2ncccc2C(=O)c2ccccc2)cc1S(=O)(=O)Nc1ccc(Cl)cc1` [compound 1195, 3-benzoyl-N-(5-(N-(4-chlorophenyl)sulfamoyl)-6-methoxypyridin-3-yl)picolinamide], the EC50 lay in the range of 10 to 20 µM and the Emax lay within 160 to 199%.
With `COc1ncc(NC(=O)c2ccccc2C(=O)c2ccccc2)cc1S(=O)(=O)Nc1ccc(Cl)cc1` [compound 1197, 2-benzoyl-N-(5-(N-(4-chlorophenyl)sulfamoyl)-6-methoxypyridin-3-yl)benzamide], the EC50 is < 10 µM and the maximal response (Emax) fell in the range of 160 to 199%.
Taken in the same sequence, the figures for `COc1ncc(NC(=O)c2ccc3nccnc3c2)cc1S(=O)(=O)Nc1ccc(Cl)cc1` [compound 1198, N-(5-(N-(4-chlorophenyl)sulfamoyl)-6-methoxypyridin-3-yl) quinoxaline-6-carboxamide] were 10 to 20 µM and 160 to 199%.
Taken in the same sequence, the figures for `COc1ncc(NC(=O)c2cc(-n3ccnc3)ccn2)cc1S(=O)(=O)Nc1ccc(Cl)cc1` [compound 1203, N-(5-(N-(4-chlorophenyl)sulfamoyl)-6-methoxypyridin-3-yl)-4-(1H-imidazol-1-yl)picolinamide] were 10 to 20 µM and 160 to 199%.
`COc1ncc(NC(=O)c2cccc(-n3cncn3)c2)cc1S(=O)(=O)Nc1ccc(Cl)cc1` [compound 1204, N-(5-(N-(4-chlorophenyl)sulfamoyl)-6-methoxypyridin-3-yl)-3-(1H-1,2,4-triazol-1-yl)benzamide]: the EC50 was in the range of 10 to 20 µM and the Emax lay in the range of 160 to 199%.
In the case of `COc1ncc(NC(=O)C(C)n2cc(Br)cn2)cc1S(=O)(=O)Nc1ccc(Cl)cc1` (stereo not drawn) [compound 1213, (4-bromo-1H-pyrazol-1-yl)-N-(5-(N-(4-chlorophenyl)sulfamoyl)-6-methoxypyridin-3-yl)propanamide], the 50% effective concentration (EC50) was in the range of 20 to 100 µM and the Emax fell in the range of 119 to 159%.
Take `Cc1ncoc1C(=O)Nc1cc(S(=O)(=O)Nc2ccc(Cl)cc2)cc[n+]1[O-]` [compound 1294, 4-(N-(4-chlorophenyl)sulfamoyl)-2-(4-methyloxazole-5-carboxamido)pyridine 1-oxide]: the concentration for a half-maximal effect (EC50) lay in the range of 20 to 100 µM and the Emax lay within 119 to 159%.
In the case of `COc1ncc(NC(=O)c2ncc(-c3ccccc3)o2)cc1S(=O)(=O)Nc1c(Cl)cccc1C(F)(F)F` [compound 1303, N-(5-(N-(2-chloro-6-(trifluoromethyl)phenyl)sulfamoyl)-6-methoxypyridin-3-yl)-5-phenyloxazole-2-carboxamide], the concentration for a half-maximal effect (EC50) was in the range of 10 to 20 µM and the Emax is 160 to 199%.
Taken in the same sequence, the figures for `COc1ncc(NC(=O)c2coc(-c3ccccc3)n2)cc1S(=O)(=O)Nc1c(C)cccc1C` [compound 1312, N-(5-(N-(2,6-dimethylphenyl)sulfamoyl)-6-methoxypyridin-3-yl)-2-phenyloxazole-4-carboxamide] were < 10 µM and 200 to 300%.
The matching figures for `O=C(Nc1cc(S(=O)(=O)Nc2ccc(Cl)cc2)cc[n+]1[O-])c1cnc(-c2ccccc2)[nH]1` [compound 1321, 4-(N-(4-chlorophenyl)sulfamoyl)-2-(2-phenyl-1H-imidazole-5-carboxamido) pyridine 1-oxide]: 10 to 20 µM and 160 to 199%.
Turning to `COc1ncc(NC(=O)c2csc(-c3ccccc3)n2)cc1S(=O)(=O)Nc1ccccc1C` [compound 1350, N-(6-methoxy-5-(N-(o-tolyl)sulfamoyl)pyridin-3-yl)-2-phenylthiazole-4-carboxamide], the EC50 was < 10 µM and the Emax fell in the range of 119 to 159%.
For the molecule `COc1ncc(NC(=O)c2csc(-c3ccncc3)n2)cc1S(=O)(=O)Nc1c(C)cccc1C` [compound 1351, N-(5-(N-(2,6-dimethylphenyl)sulfamoyl)-6-methoxypyridin-3-yl)-2-(pyridin-4-yl)thiazole-4-carboxamide], the EC50 was 10 to 20 µM and the Emax lay in the range of 119 to 159%.
Taken in the same sequence, the figures for `COc1ncc(NC(=O)c2ncc(-c3ccccc3)o2)cc1S(=O)(=O)Nc1c(C#N)cccc1C(F)(F)F` [compound 1358, N-(5-(N-(2-cyano-6-(trifluoromethyl)phenyl)sulfamoyl)-6-methoxypyridin-3-yl)-5-phenyloxazole-2-carboxamide] were 20 to 100 µM and 200 to 300%.
As to `COc1ncc(NC(=O)c2cn(C)c3ncccc23)cc1S(=O)(=O)Nc1ccc(Cl)cc1` [compound 1359, N-(5-(N-(4-chlorophenyl)sulfamoyl)-6-methoxypyridin-3-yl)-1-methyl-1H-pyrrolo [2,3-b]pyridine-3-carboxamide], the EC50 was in the range of 20 to 100 µM and the maximal response (Emax) was in the range of 119 to 159%.
The matching figures for `O=C(Nc1cc(S(=O)(=O)Nc2ccc(Cl)cc2)ccn1)c1cnc(-c2ccccc2)[nH]1` [compound 1361, N-(4-(N-(4-chlorophenyl)sulfamoyl)pyridin-2-yl)-2-phenyl-1H-imidazole-5-carboxamide]: 10 to 20 µM and 200 to 300%.
The matching figures for `COc1ncc(NC(=O)c2ccnc3c2OCCC3)cc1S(=O)(=O)Nc1c(C)cccc1C` [compound 1364, N-(5-(N-(2,6-dimethylphenyl)sulfamoyl)-6-methoxypyridin-3-yl)-3,4-dihydro-2H-pyrano[3,2-b]pyridine-8-carboxamide]: 20 to 100 µM and > 300%.
Taken in the same sequence, the figures for `COc1ncc(NC(=O)c2cccc3ocnc23)cc1S(=O)(=O)Nc1c(C)cccc1C` [compound 1366, N-(5-(N-(2,6-dimethylphenyl)sulfamoyl)-6-methoxypyridin-3-yl)benzo[d]oxazole-4-carboxamide] were < 10 µM and 200 to 300%.
As for `COc1ncc(NC(=O)c2cccc3ncoc23)cc1S(=O)(=O)Nc1c(C)cccc1C` [compound 1367, N-(5-(N-(2,6-dimethylphenyl)sulfamoyl)-6-methoxypyridin-3-yl)benzo[d]oxazole-7-carboxamide], the concentration for a half-maximal effect (EC50) lay in the range of 20 to 100 µM and the maximal response (Emax) was > 300%.
Turning to `COc1ncc(NC(=O)c2ncc(-c3ccccc3)o2)cc1S(=O)(=O)Nc1c(F)cccc1C(F)(F)F` [compound 1377, N-(5-(N-(2-fluoro-6-(trifluoromethyl)phenyl)sulfamoyl)-6-methoxypyridin-3-yl)-5-phenyloxazole-2-carboxamide], the EC50 lay in the range of 20 to 100 µM and the Emax fell in the range of 160 to 199%.
With `COc1ncc(NC(=O)c2cccc3c2OC(C)(C)C3)cc1S(=O)(=O)Nc1c(C)cccc1C` [compound 1379, N-(5-(N-(2,6-dimethylphenyl)sulfamoyl)-6-methoxypyridin-3-yl)-2,2-dimethyl-2,3-dihydrobenzofuran-7-carboxamide], the concentration giving a half-maximal response (EC50) fell in the range of 20 to 100 µM and the Emax was in the range of 200 to 300%.
With `COc1ncc(NC(=O)c2cc3c(C)nn(C)c3s2)cc1S(=O)(=O)Nc1c(C)cccc1C` [compound 1380, N-(5-(N-(2,6-dimethylphenyl)sulfamoyl)-6-methoxypyridin-3-yl)-1,3-dimethyl-1H-thieno[2,3-c]pyrazole-5-carboxamide], the concentration giving a half-maximal response (EC50) is < 10 µM and the Emax is > 300%.
As to `COc1ncc(NC(=O)c2csc(-c3ccccc3)n2)cc1S(=O)(=O)Nc1ccc(Cl)nc1C` [compound 1382, N-(5-(N-(6-chloro-2-methylpyridin-3-yl)sulfamoyl)-6-methoxypyridin-3-yl)-2-phenylthiazole-4-carboxamide], the 50% effective concentration (EC50) is 20 to 100 µM and the maximum response (Emax) fell in the range of 200 to 300%.
`COc1ncc(NC(=O)c2csc(-c3ccccc3)n2)cc1S(=O)(=O)Nc1ncc(Cl)cn1` [compound 1383, N-(5-(N-(5-chloropyrimidin-2-yl)sulfamoyl)-6-methoxypyridin-3-yl)-2-phenylthiazole-4-carboxamide]: the EC50 was 20 to 100 µM and the maximum response (Emax) was > 300%.
